Measurements published in ChEMBL document CHEMBL1123161, “Synthesis and evaluation of 4-(substituted thio)-4-androstene-3,17-dione derivatives as potential aromatase inhibitors” (J Med Chem, 1986).

Experiments:
[1] = target: T1, Aromatase (Homo sapiens, UniProt P11511); experiment: Evaluated for its competitive inhibitory activity against Cytochrome P450 19A1 with the use of human placental microsomal preparation; parameters: species or system Placenta; details: read-out: Ki app
T1 sequence (P11511 whole entry): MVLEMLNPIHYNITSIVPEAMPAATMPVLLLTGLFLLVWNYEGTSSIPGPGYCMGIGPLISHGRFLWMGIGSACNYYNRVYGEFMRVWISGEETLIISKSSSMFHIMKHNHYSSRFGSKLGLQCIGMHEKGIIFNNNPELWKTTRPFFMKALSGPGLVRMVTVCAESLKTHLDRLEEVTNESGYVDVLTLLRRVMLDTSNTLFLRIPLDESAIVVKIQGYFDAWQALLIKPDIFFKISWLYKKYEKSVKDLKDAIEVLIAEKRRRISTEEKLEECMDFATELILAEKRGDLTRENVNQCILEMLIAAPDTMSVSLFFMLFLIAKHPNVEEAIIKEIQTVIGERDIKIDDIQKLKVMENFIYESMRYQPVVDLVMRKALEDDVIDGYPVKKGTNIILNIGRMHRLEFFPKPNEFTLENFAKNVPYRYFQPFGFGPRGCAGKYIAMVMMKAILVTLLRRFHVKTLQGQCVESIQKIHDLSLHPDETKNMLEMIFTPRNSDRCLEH

[2] = target: T1, Aromatase
Description: (§1) Inhibition of Cytochrome P450 19A1 at the concentration of 1.5 uM

[3] = target: T1, Aromatase; remark: listed apart in the source
Description: (§2) Inhibition of Cytochrome P450 19A1 at the concentration of 0.75 uM

[4] = target: T1, Aromatase; remark: listed apart in the source
Description: (§3) Inhibition of Cytochrome P450 19A1 at the concentration of 0.25 uM

[5] = target: T1, Aromatase; details: 1.5 µM
Description: as §1

[6] = target: T1, Aromatase; details: 0.25 µM
Description: as §3

[7] = target: T1, Aromatase; details: 0.75 µM
Description: as §2

SMILES	Ki [1]	inhibition at 1.5 µM [2]	inhibition at 0.75 µM [3]	inhibition at 0.25 µM [4]	Inhibition [5]	Inhibition [6]	Inhibition [7]
CC(=O)SC1=C2CCC3C4CCC(=O)C4(C)CCC3C2(C)CCC1=O (stereo not drawn)	73 nM	58%	42%	19%			
CCSC1=C2CCC3C4CCC(=O)C4(C)CCC3C2(C)CCC1=O (stereo not drawn)	41 nM	52%	45%	26%			
CCCSC1=C2CCC3C4CCC(=O)C4(C)CCC3C2(C)CCC1=O (stereo not drawn)	65 nM	49%	42%	25%			
CCCCCSC1=C2CCC3C4CCC(=O)C4(C)CCC3C2(C)CCC1=O (stereo not drawn)		8%	4%	2%			
Cc1ccc(SC2=C3CCC4C5CCC(=O)C5(C)CCC4C3(C)CCC2=O)cc1 (stereo not drawn)		31%	27%	14%			
CC12CCC3C(CCC4=C(SCc5ccccc5)C(=O)CCC43C)C1CCC2=O (stereo not drawn)		8%	5%	2%			
CC(=O)OC1=C2CCC3C4CCC(=O)C4(C)CCC3C2(C)CCC1=O (stereo not drawn)		78%	70%	38%			
CC12CCC3C(CCC4=C(Sc5ccccc5)C(=O)CCC43C)C1CCC2=O (stereo not drawn)	36 nM	68%	55%	36%			
CC12CCC3C(CCC4=C(Sc5ccc([N+](=O)[O-])cc5)C(=O)CCC43C)C1CCC2=O (stereo not drawn)		0%	0%	0%			
CCCCSC1=C2CCC3C4CCC(=O)C4(C)CCC3C2(C)CCC1=O (stereo not drawn)		18%	12%	8%			
CSC1=C2CCC3C4CCC(=O)C4(C)CCC3C2(C)CCC1=O (stereo not drawn)	59 nM	74%	61%	39%			
CC12CCC3C(CCC4=C(S)C(=O)CCC43C)C1CCC2=O (stereo not drawn)		63%	52%	31%			
CC12CCC3C(CCC4=C(Sc5ccc(Br)cc5)C(=O)CCC43C)C1CCC2=O (stereo not drawn)		6%	4%	0%			
COc1ccc(SC2=C3CCC4C5CCC(=O)C5(C)CCC4C3(C)CCC2=O)cc1 (stereo not drawn)		2%	0%	0%			
CC12CCC3C(CCC4=C(Sc5ccc(N)cc5)C(=O)CCC43C)C1CCC2=O (stereo in doubt)	18 nM				82%	46%	70%
CC12CCC3C(CCC4=C(Sc5ccc(N)cc5)C(=O)CCC43C)C1CCC2=O (stereo in doubt; 14)					0%	0%	0%
C[C@]12CCC(=O)C(O)=C1CC[C@@H]1[C@@H]2CC[C@]2(C)C(=O)CC[C@@H]12 [FORMESTANE]	54 nM	84%	74%	49%			
